Test system: 653999-131-R-J2-PDC complex spheroids, growth inhibition
Experiment: Anticancer human tumor 653999-131-R-J2-PDC patient-derived lung adenocarcinoma cell line growth inhibition [RAS]
Details: for viability, T/C: stronger effect = lower value; active means viability on the fitted dose curve at most 10% of control; inactive means the rest
Text: RAS pathway inhibitors in Combinations in Complex Spheroids
A high-throughput screen of multi-cell type tumor spheroids was designed to identify active combinations of RAS pathway inhibitors and targeted small molecules. Complex spheroids include a stromal component modeled by human endothelial cells (HUVEC) and fibroblasts modeled by human mesenchymal stem cells (MSCs). The concentration ranges selected for each drug and investigational agent were based upon clinically achievable concentrations if the clinical Cmax of the agent was known.
Compounds. The drugs and investigational agents: abemaciclib (NSC768073), cobimetinib (NSC768068), divarasib (GDC6063, NSC841802), docetaxel (NSC628503), GDC-1971 (RLY-1971, NSC841576), gemcitabine (NSC613327), inavolisib (NSC800729), ipatasertib (NSC767898), KB-0742 (NSC834161), MRTX-1133 (NSC836407), osimertinib (NSC779217), RMC-4630 (NSC839698), RMC-6236 (NSC851965), RMC-6291 (NSC852671), Ro-3306 (NSC812927), sapanisertib (NSC764658), SN-38 (NSC673596), staurosporine (NSC755774), SY5609 (NSC837396), and tovorafenib (DAY101, NSC766906), were obtained from the National Cancer Institute (NCI) Developmental Therapeutics Program Chemical Repository. The FDA-approved anticancer drug set is available from the NCI Developmental Therapeutics Program. […] The stock solutions were prepared in dimethyl sulfoxide (DMSO, Sigma-Aldrich, St. Louis, MO, cat. D2650) at 800-fold the tested concentration and stored at -70 degrees C prior to their use. All drugs and investigational agents were tested over a range starting from a high concentration at or near the clinical Cmax and decreasing in half-log increments. If the clinical Cmax for an agent had not been determined, the highest concentration tested was 10 microM.
Cell Culture. All cells were maintained in an incubator at 37 degrees C and 5% CO2 with 95% humidity. The PDC lines were cultured according to standard operating procedures established by the NCI PDMR. All PDCs were thawed and cultured in Matrigel-coated flasks prepared with a working solution of 1X Ham's F-12 nutrient mix, without supplementation (Invitrogen, Waltham, MA, cat. 11765054), 100 U/mL penicillin-streptomycin (Invitrogen, cat. 15140122), and 2.5% Matrigel (Corning Inc., Corning, NY, cat. 354248) for the first three passages. The 362531-283-R-J2-PDC and 782815-120-R-J1-PDC lines were cultured in 6C/Colon 1B media, which includes advanced DMEM/F-12 (Thermo Fisher Scientific, cat. 12634028), 10 mM HEPES (Thermo Fisher Scientific, cat. 15630080), 1X GlutaMAX supplement (Thermo Fisher Scientific, cat. 35050061), 0.1 mg/mL primocin (InvivoGen, San Diego, CA, cat. ant-pm-2), 10% defined fetal bovine serum, heat inactivated (HyClone Laboratories Inc., Logan, UT, cat. SH30070.03HI), 50% L-WRN conditioned media (ATCC, cat. CRL-3276), 1.25 mM N-Acetyl-L-cysteine (Sigma-Aldrich, cat. A9165), 10 mM nicotinamide (Sigma-Aldrich, cat. N0636), 1X B-27 supplement (Thermo Fisher Scientific, cat. 17504044), 1X N-2 supplement (Thermo Fisher Scientific, cat. 17502048), 50 ng/mL human EGF (Thermo Fisher Scientific, cat. PHG0311), and 10 microM Y-27632 dihydrochloride (Tocris Bioscience, cat. 1254). The K12877-001-R-J1-PDC line was cultured in 6I media, which includes all 6C/Colon 1B media plus 10 ng/mL human FGF-10 (PeproTech, cat. 100-26), 1 ng/mL human FGF-2 (PeproTech, cat. 100-18B), 1 µM prostaglandin E2 (Tocris Bioscience, cat. 2296), […] hydrocortisone (Sigma-Aldrich, cat. H4001), and […] bovine insulin (Sigma-Aldrich, cat. I6634). The K86415-001-R-J1-PDC line was cultured in 6D media, which includes all 6C/Colon 1B media components minus the L-WRN conditioned media. The 485176-168-R4-J1-PDC was cultured in PANC media, which includes all 6C/Colon 1B media plus 100 ng/mL human FGF-10 (PeproTech, cat. 100-26), 500 nM SB-431542 (Selleckchem, cat. S1067), and 10 nM gastrin (Tocris Bioscience, cat. 3006). […]
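Further: spheroids exposed to the agents for seven days before the readout.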

O=C(c1ccc(F)c(F)c1Nc1ccc(I)cc1F)N1CC(O)([C@@H]2CCCCN2)C1
112 nM [middle of 4 runs]: IC50 (curve of compound)
inactive: viability, T/C (compound 0.01 µM) 77.5% [middle of 4 runs] | viability, T/C (compound 0.1 µM) 51.2% [middle of 4 runs] | viability, T/C (compound 0.316 µM) 28.2% [middle of 4 runs]
11.1% [middle of 4 runs]: viability, T/C (compound 1 µM)

Cc1nc(N2CCC3(CC2)COC(C)C3N)c(CO)nc1Sc1ccnc(N)c1Cl (centres undefined) + CCn1c(-c2cc(N3CCN(C)CC3)cnc2C(C)OC)c2c3cc(ccc31)-c1csc(n1)CC(NC(=O)C1CC1C)C(=O)N1CCCC(N1)C(=O)OCC(C)(C)C2
> 10000 nM: IC50 (curve of first compound, second compound 0.000949 µM) | IC50 (curve of first compound, second compound 0.003 µM)
inactive: viability, T/C (second compound 0.000949 µM, first compound 0.0316 µM) 80.8% | viability, T/C (second compound 0.000949 µM, first compound 0.1 µM) 91.1% | viability, T/C (second compound 0.000949 µM, first compound 0.316 µM) 76.1% | viability, T/C (second compound 0.000949 µM, first compound 1 µM) 80.9% | viability, T/C (second compound 0.000949 µM, first compound 3.16 µM) 64.2% | viability, T/C (second compound 0.000949 µM, first compound 10 µM) 76.8% | viability, T/C (second compound 0.003 µM, first compound 0.0316 µM) 60.9% | viability, T/C (second compound 0.003 µM, first compound 0.1 µM) 47.7% | viability, T/C (second compound 0.003 µM, first compound 0.316 µM) 64% | viability, T/C (second compound 0.003 µM, first compound 1 µM) 54.8% | viability, T/C (second compound 0.003 µM, first compound 3.16 µM) 47% | viability, T/C (second compound 0.003 µM, first compound 10 µM) 54.1% | viability, T/C (second compound 0.00949 µM, first compound 0.0316 µM) 43.1% | viability, T/C (second compound 0.00949 µM, first compound 0.1 µM) 34.9% | viability, T/C (second compound 0.00949 µM, first compound 0.316 µM) 37.4% | viability, T/C (second compound 0.00949 µM, first compound 1 µM) 41.1% | viability, T/C (second compound 0.00949 µM, first compound 3.16 µM) 24.6% | viability, T/C (second compound 0.00949 µM, first compound 10 µM) 29.7% | viability, T/C (second compound 0.03 µM, first compound 0.0316 µM) 36.7% | viability, T/C (second compound 0.03 µM, first compound 0.1 µM) 30.2% | viability, T/C (second compound 0.03 µM, first compound 0.316 µM) 21% | viability, T/C (second compound 0.03 µM, first compound 1 µM) 19.1% | viability, T/C (second compound 0.03 µM, first compound 3.16 µM) 17.3% | viability, T/C (second compound 0.03 µM, first compound 10 µM) 15.9% | viability, T/C (second compound 0.0949 µM, first compound 0.0316 µM) 21.4% | viability, T/C (second compound 0.0949 µM, first compound 0.1 µM) 27.6% | viability, T/C (second compound 0.0949 µM, first compound 0.316 µM) 14.4% | viability, T/C (second compound 0.0949 µM, first compound 1 µM) 14.2% | viability, T/C (second compound 0.0949 µM, first compound 3.16 µM) 11% | viability, T/C (second compound 0.0949 µM, first compound 10 µM) 11.9% | viability, T/C (second compound 0.3 µM, first compound 0.0316 µM) 23.4% | viability, T/C (second compound 0.3 µM, first compound 0.1 µM) 18.5% | viability, T/C (second compound 0.3 µM, first compound 0.316 µM) 20% | viability, T/C (second compound 0.3 µM, first compound 1 µM) 12.7% | viability, T/C (second compound 0.3 µM, first compound 3.16 µM) 10.1%
active: viability, T/C (second compound 0.3 µM, first compound 10 µM) 7.03%
< 31.6 nM: IC50 (curve of first compound, second compound 0.00949 µM) | IC50 (curve of first compound, second compound 0.03 µM) | IC50 (curve of first compound, second compound 0.0949 µM) | IC50 (curve of first compound, second compound 0.3 µM)

CC1(O)CCCC1n1c(=O)c(C(F)F)cc2cnc(NC3CCN(S(C)(=O)=O)CC3)nc21 (centres undefined) + C#Cc1c(F)ccc2cc(O)cc(-c3ncc4c(N5CC6CCC(C5)N6)nc(OCC56CCCN5CC(F)C6)nc4c3F)c12
inactive: viability, T/C (second compound 0.0316 µM, first compound 0.0316 µM) 71.3% | viability, T/C (second compound 0.0316 µM, first compound 0.1 µM) 54.8% | viability, T/C (second compound 0.0316 µM, first compound 0.316 µM) 62.4% | viability, T/C (second compound 0.0316 µM, first compound 1 µM) 57.2% | viability, T/C (second compound 0.0316 µM, first compound 3.16 µM) 63.1% | viability, T/C (second compound 0.0316 µM, first compound 10 µM) 29.6% | viability, T/C (second compound 0.1 µM, first compound 0.0316 µM) 69.4% | viability, T/C (second compound 0.1 µM, first compound 0.1 µM) 49.9% | viability, T/C (second compound 0.1 µM, first compound 0.316 µM) 51.2% | viability, T/C (second compound 0.1 µM, first compound 1 µM) 52.1% | viability, T/C (second compound 0.1 µM, first compound 3.16 µM) 58.4% | viability, T/C (second compound 0.1 µM, first compound 10 µM) 24.7% | viability, T/C (second compound 0.316 µM, first compound 0.0316 µM) 49.4% | viability, T/C (second compound 0.316 µM, first compound 0.1 µM) 42.7% | viability, T/C (second compound 0.316 µM, first compound 0.316 µM) 42.6% | viability, T/C (second compound 0.316 µM, first compound 1 µM) 45.5% | viability, T/C (second compound 0.316 µM, first compound 3.16 µM) 49.2% | viability, T/C (second compound 0.316 µM, first compound 10 µM) 27.7% | viability, T/C (second compound 1 µM, first compound 0.0316 µM) 40.5% | viability, T/C (second compound 1 µM, first compound 0.1 µM) 31.4% | viability, T/C (second compound 1 µM, first compound 0.316 µM) 32.7% | viability, T/C (second compound 1 µM, first compound 1 µM) 34.3% | viability, T/C (second compound 1 µM, first compound 3.16 µM) 34.4% | viability, T/C (second compound 1 µM, first compound 10 µM) 24.5% | viability, T/C (second compound 3.16 µM, first compound 0.0316 µM) 29.6% | viability, T/C (second compound 3.16 µM, first compound 0.1 µM) 25.5% | viability, T/C (second compound 3.16 µM, first compound 0.316 µM) 21.6% | viability, T/C (second compound 3.16 µM, first compound 1 µM) 23% | viability, T/C (second compound 3.16 µM, first compound 3.16 µM) 31.4% | viability, T/C (second compound 3.16 µM, first compound 10 µM) 20.7% | viability, T/C (second compound 10 µM, first compound 0.0316 µM) 23.2% | viability, T/C (second compound 10 µM, first compound 0.1 µM) 17.1% | viability, T/C (second compound 10 µM, first compound 0.316 µM) 20.6% | viability, T/C (second compound 10 µM, first compound 1 µM) 19.7% | viability, T/C (second compound 10 µM, first compound 3.16 µM) 25.6% | viability, T/C (second compound 10 µM, first compound 10 µM) 22.7%
4780 nM: IC50 (curve of first compound, second compound 0.0316 µM)
3960 nM: IC50 (curve of first compound, second compound 0.1 µM)
< 31.6 nM: IC50 (curve of first compound, second compound 0.316 µM) | IC50 (curve of first compound, second compound 1 µM) | IC50 (curve of first compound, second compound 3.16 µM) | IC50 (curve of first compound, second compound 10 µM)
